pEC50, pIC50: −log10 of the molar value. Calls of active or inactive are those of the source. The rule behind the calls is not given here.
Biological target: T1, Rhodopsin (Bos taurus, UniProt P02699)
Experiment: Inhibition of bovine retinal rod outer-segment photoactivated rhodopsin-transducer interaction by transducer release assay

T1 sequence (P02699 whole entry): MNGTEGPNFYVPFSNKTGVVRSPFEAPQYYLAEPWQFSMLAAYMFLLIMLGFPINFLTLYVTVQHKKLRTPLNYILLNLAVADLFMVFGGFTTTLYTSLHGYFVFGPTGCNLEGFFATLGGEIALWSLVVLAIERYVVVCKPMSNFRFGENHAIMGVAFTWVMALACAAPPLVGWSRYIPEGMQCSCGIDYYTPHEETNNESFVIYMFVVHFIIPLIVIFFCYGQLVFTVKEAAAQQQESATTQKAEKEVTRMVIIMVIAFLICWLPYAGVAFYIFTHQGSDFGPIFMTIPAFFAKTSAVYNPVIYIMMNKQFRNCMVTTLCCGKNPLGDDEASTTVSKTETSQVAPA

| pIC50 | SMILES |
| --- | --- |
| 3.74 | C[C@H]1[C@H](C)CC[C@]2(C(=O)O)CC[C@]3(C)C(=CC[C@@H]4[C@@]5(C)C[C@@H](O)[C@H](O)[C@@](C)(CO)[C@@H]5[C@H](O)C[C@]43C)[C@H]12 [MADECASSIC ACID] |

Biological target: T1, Rhodopsin
Experiment: Binding affinity to photoactivated rhodopsin in bovine retinal rod outer-segment membranes assessed as induction of extra receptor MII state stabilization by UV/visible difference spectroscopy

| pEC50 | SMILES |
| --- | --- |
| 3.92 | C[C@H]1[C@H](C)CC[C@]2(C(=O)O)CC[C@]3(C)C(=CC[C@@H]4[C@@]5(C)C[C@@H](O)[C@H](O)[C@@](C)(CO)[C@@H]5[C@H](O)C[C@]43C)[C@H]12 [MADECASSIC ACID] |

Biological target: Rhodopsin (Bos taurus) (UniProt P02699)
Experiment: Binding affinity to photoactivated rhodopsin in bovine retinal rod outer-segment membranes assessed as induction of extra receptor MII state stabilization at 250 uM by UV/visible difference spectroscopy

Chain of Rhodopsin (Bos taurus) (P02699 whole entry): as above

| SMILES | Activity |
| --- | --- |
| C[C@]12CC[C@H]3[C@@H](CCC4=CC(=O)CC[C@@]43C)[C@@H]1CC[C@@H]2CCOS(=O)(=O)c1ccc(Br)cc1 | Active |
| CC1(C)CC[C@]2(C(=O)O)CC[C@]3(C)C(=CC[C@@H]4[C@@]5(C)C[C@H](O)[C@H](O)[C@@](C)(C(=O)O)[C@@H]5CC[C@]43C)[C@@H]2C1 | Active |
| C[C@]12CCC(=O)C=C1CC[C@@H]1[C@@H]2[C@@H](O)C[C@@]2(C)[C@H]1CC[C@]2(O)[C@@H](O)CO | Active |

Now from value to compound:

| Activity | SMILES |
| --- | --- |
| Active | CC1(C)[C@@H](O)CC[C@]2(C)[C@H]3C(=O)C=C4[C@@H]5C[C@@](C)(C(=O)O)CC[C@]5(C)CC[C@@]4(C)[C@]3(C)CC[C@@H]12 |
| Active | CC1(C)[C@@H](O)CC[C@]2(C)[C@H]3C(=O)C=C4C5C[C@@](C)(C(=O)O)CC[C@]5(C)CC[C@@]4(C)[C@]3(C)CC[C@@H]12 (single isomer, unassigned) |
| Active | CC1(C)CC[C@]2(C(=O)O)CC[C@]3(C)C(=CC[C@@H]4[C@@]5(C)CC[C@H](O)C(C)(C)[C@@H]5CC[C@]43C)[C@@H]2C1 |
| Active | C[C@H]1[C@H](C)CC[C@]2(C(=O)O)CC[C@]3(C)C(=CC[C@@H]4[C@@]5(C)CC[C@H](O)C(C)(C)[C@@H]5CC[C@]43C)[C@H]12 |
